What was measured:
[1] = biological target: Cyclin-dependent kinase 5/CDK5 activator 1 (Homo sapiens, UniProt Q00535); assay: Inhibition of human cdk5/p25 by SPA; assay type: protein-complex assay
[2] = biological target: Cyclin-dependent kinase 2/cyclin E (Homo sapiens, UniProt P24941); assay: Inhibition of human cdk2/cyclin E by SPA; assay type: protein-complex assay
Homo sapiens = organism: Homo sapiens; assay: Selectivity for human cdk5/[…] over human cdk2/cyclin E
[3] = Cytotoxicity against VeroC1008 cells at 6.25 to 50 ug/ml by neutral red uptake assay; assay type: cell-based; conditions: chlorocebus sabaeus, vero

Sequence of Cyclin-dependent kinase 5/CDK5 activator 1 (Q00535 whole entry): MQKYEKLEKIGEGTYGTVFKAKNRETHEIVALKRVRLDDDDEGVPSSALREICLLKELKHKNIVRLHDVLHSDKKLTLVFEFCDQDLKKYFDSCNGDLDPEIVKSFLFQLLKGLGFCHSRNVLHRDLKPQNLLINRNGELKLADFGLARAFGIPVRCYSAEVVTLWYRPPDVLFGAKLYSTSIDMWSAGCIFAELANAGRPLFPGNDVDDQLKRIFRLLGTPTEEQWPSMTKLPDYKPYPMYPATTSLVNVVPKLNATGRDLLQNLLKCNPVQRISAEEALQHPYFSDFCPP
Sequence of Cyclin-dependent kinase 5/CDK5 activator 1 (Q15078 whole entry, further chain): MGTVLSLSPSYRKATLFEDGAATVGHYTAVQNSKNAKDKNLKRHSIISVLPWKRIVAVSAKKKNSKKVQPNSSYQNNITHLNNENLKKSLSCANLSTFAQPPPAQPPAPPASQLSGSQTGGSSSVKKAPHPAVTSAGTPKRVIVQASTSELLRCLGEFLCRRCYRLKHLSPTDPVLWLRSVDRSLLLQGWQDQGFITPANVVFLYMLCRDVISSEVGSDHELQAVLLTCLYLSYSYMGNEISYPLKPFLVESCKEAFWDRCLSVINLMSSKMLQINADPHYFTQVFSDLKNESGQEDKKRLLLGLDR

Compound | IC50 [1] [nM] | IC50 [2] [nM] | Ratio IC50 (Homo sapiens) | Activity [3]
N#CCSc1nnc(Cc2csc(NC(=O)CCl)n2)n1NC(=O)c1ccccc1 | 657 |  |  | Non-toxic
N#CCSc1nnc(Cc2csc(NC(=O)c3ccccc3)n2)n1NC(=O)c1ccccc1 | 496 |  |  | Non-toxic
Nn1c(CSc2nnc(Cc3csc(NC(=O)c4ccccc4)n3)n2NC(=O)c2ccccc2)n[nH]c1=S | 4650 |  |  | Non-toxic
CC(=O)Nn1c(Cc2csc(NC(=O)CCl)n2)nnc1SCC(=O)N/N=C/c1ccccc1 | 536 |  |  | Non-toxic
COC(=O)CSc1nnc(Cc2csc(NC(=O)c3ccccc3)n2)n1NC(C)=O | 598 |  |  | Non-toxic
O=C(CSc1nnc(Cc2csc(NC(=O)CCl)n2)n1NC(=O)c1ccc(Cl)cc1)NNC(=O)c1ccccc1 | 640 |  |  | Non-toxic
COC(=O)CSc1nnc(Cc2csc(NC(=O)CCl)n2)n1NC(=O)c1ccccc1 | 674 |  |  | Non-toxic
N#CCSc1nnc(Cc2csc(NCCC(=O)O)n2)n1NC(=O)c1ccc(Cl)cc1 | 426 |  |  | Non-toxic
CC(=O)Nc1nc(Cc2nnc(SCSc3nnc(Cc4csc(NC(C)=O)n4)n3NC(=O)c3ccccc3)n2NC(=O)c2ccccc2)cs1 | 647 |  |  | Non-toxic
CC(=O)Nn1c(Cc2csc(NCCC(=O)O)n2)nnc1SCSc1nnc(Cc2csc(NCCC(=O)O)n2)n1NC(C)=O | 743 |  |  | Non-toxic
CC(=O)Nc1nc(Cc2n[nH]c(=S)n2NC(=O)c2ccccc2)cs1 | 574 |  |  | Non-toxic
COC(=O)CSc1nnc(Cc2csc(NC(=O)CCl)n2)n1NC(=O)c1ccc(Cl)cc1 | 440 |  |  | Non-toxic
Nn1c(CSc2nnc(Cc3csc(NCCC(=O)O)n3)n2NC(=O)c2ccc(Cl)cc2)n[nH]c1=S | 6650 |  |  | Non-toxic
Nn1c(S)nnc1CSc1nnc(Cc2csc(NC(=O)CCl)n2)n1NC(=O)c1ccccc1 | 6990 |  |  | Non-toxic
CC(=O)Nc1nc(Cc2nnc(SCC(=O)NNC(=O)c3ccccc3)n2NC(=O)c2ccc(Cl)cc2)cs1 | 534 |  |  | Non-toxic
CC(=O)Nn1c(Cc2csc(NC(=O)CCl)n2)nnc1SCc1nnc(S)n1N | 4640 |  |  | Non-toxic
O=C(CCl)Nc1nc(Cc2n[nH]c(=S)n2NC(=O)c2ccccc2)cs1 | 761 |  |  | Non-toxic
CC(=O)Nn1c(Cc2csc(NCCC(=O)O)n2)nnc1SCC#N | 641 |  |  | Non-toxic
CC(=O)Nc1nc(Cc2nnc(SCc3nnc(S)n3N)n2NC(C)=O)cs1 | 5250 |  |  | Non-toxic
CC(=O)NNC(=O)CSc1nnc(Cc2csc(NC(C)=O)n2)n1NC(=O)c1ccccc1 | 542 |  |  | Non-toxic
CC(=O)Nn1c(Cc2csc(NCCC(=O)O)n2)nnc1SCC(=O)NN | 943 |  |  | Non-toxic
CC(=O)Nc1nc(Cc2nnc(SCC(=O)NNC(=O)CCl)n2NC(C)=O)cs1 | 476 |  |  | Non-toxic
O=C(CSc1nnc(Cc2csc(NC(=O)c3ccccc3)n2)n1NC(=O)c1ccccc1)N/N=C/c1ccccc1 | 496 |  |  | Non-toxic
CC(=O)Nn1c(Cc2csc(NC(=O)c3ccccc3)n2)nnc1SCSc1nnc(Cc2csc(NC(=O)c3ccccc3)n2)n1NC(C)=O | 764 |  |  | Non-toxic
CC(=O)NNC(=O)CSc1nnc(Cc2csc(NC(=O)c3ccccc3)n2)n1NC(=O)c1ccccc1 | 564 |  |  | Non-toxic
CC(=O)Nn1c(Cc2csc(NC(=O)c3ccccc3)n2)nnc1SCC(=O)N/N=C/c1ccccc1 | 467 |  |  | Non-toxic
O=C(CCl)Nc1nc(Cc2nnc(S)n2NC(=O)c2ccc(Cl)cc2)cs1 | 642 |  |  | Non-toxic
CC(=O)Nc1nc(Cc2nnc(SCc3n[nH]c(=S)n3N)n2NC(=O)c2ccc(Cl)cc2)cs1 | 7480 |  |  | Non-toxic
CC(=O)Nc1nc(Cc2nnc(SCC(=O)N/N=C/c3ccccc3)n2NC(C)=O)cs1 | 463 |  |  | Non-toxic

The next compounds have a lower IC50 [1] than those just listed; values first:

IC50 [1] [nM] | IC50 [2] [nM] | Ratio IC50 (Homo sapiens) | Compound | Activity [3]
413 |  |  | CC(=O)Nn1c(Cc2csc(NC(=O)c3ccccc3)n2)nnc1SCC(=O)NNC(=O)c1ccccc1 | Non-toxic
395 |  |  | CC(=O)Nc1nc(Cc2nnc(SCC#N)n2NC(=O)c2ccccc2)cs1 | Non-toxic
390 |  |  | Nn1c(S)nnc1Cc1csc(NC(=O)CCl)n1 | Non-toxic
382 |  |  | CC(=O)Nc1nc(Cc2nnc(SCSc3nnc(Cc4csc(NC(C)=O)n4)n3NC(=O)c3ccc(Cl)cc3)n2NC(=O)c2ccc(Cl)cc2)cs1 | Non-toxic
365 |  |  | CC(=O)Nn1c(Cc2csc(NC(=O)CCl)n2)nnc1SCC(=O)NNC(=O)c1ccccc1 | Non-toxic
364 |  |  | COC(=O)CSc1nnc(Cc2csc(NC(=O)c3ccccc3)n2)n1NC(=O)c1ccccc1 | Non-toxic
354 |  |  | CC(=O)NNC(=O)CSc1nnc(Cc2csc(NC(=O)CCl)n2)n1NC(C)=O | Non-toxic
340 |  |  | O=C(CCl)NNC(=O)CSc1nnc(Cc2csc(NC(=O)c3ccccc3)n2)n1NC(=O)c1ccc(Cl)cc1 | Non-toxic
290 |  |  | COC(=O)CSc1nnc(Cc2csc(NC(=O)c3ccccc3)n2)n1NC(=O)c1ccc(Cl)cc1 | Non-toxic
268 |  |  | NNC(=O)CSc1nnc(Cc2csc(NC(=O)c3ccccc3)n2)n1NC(=O)c1ccccc1 | Non-toxic
264 |  |  | CC(=O)Nn1c(Cc2csc(NCCC(=O)O)n2)nnc1SCC(=O)NNC(=O)CCl | Non-toxic
260 |  |  | CC(=O)Nc1nc(Cc2nnc(SCC(=O)NNC(=O)CCl)n2NC(=O)c2ccc(Cl)cc2)cs1 | Non-toxic
186 |  |  | O=C(Nc1nc(Cc2nnc(S)n2NC(=O)c2ccc(Cl)cc2)cs1)c1ccccc1 | Non-toxic
180 |  |  | O=C(O)CCNc1nc(Cc2nnc(SCC(=O)NNC(=O)CCl)n2NC(=O)c2ccc(Cl)cc2)cs1 | Non-toxic
72 | 624 | 8.6 | CC(=O)Nc1nc(Cc2nnc(SCC(=O)NN)n2NC(=O)c2ccc(Cl)cc2)cs1 | Non-toxic
64 | 6340 | 99 | NNC(=O)CSc1nnc(Cc2csc(NCCC(=O)O)n2)n1NC(=O)c1ccc(Cl)cc1 | Non-toxic
64 | 1340 | 21 | N#CCSc1nnc(Cc2csc(NC(=O)c3ccccc3)n2)n1NC(=O)c1ccc(Cl)cc1 | Non-toxic
62 | 1140 | 18.3 | CC(=O)Nc1nc(Cc2nnc(SCC#N)n2NC(=O)c2ccc(Cl)cc2)cs1 | Non-toxic
48 | 50 | 1 | CC(=O)Nc1nc(Cc2nnc(S)n2N)cs1 | Non-toxic
44 | 890 | 20 | NNC(=O)CSc1nnc(Cc2csc(NC(=O)CCl)n2)n1NC(=O)c1ccc(Cl)cc1 | Non-toxic
42 | 51 | 1.2 | O=C(CSc1nnc(Cc2csc(NC(=O)CCl)n2)n1NC(=O)c1ccc(Cl)cc1)N/N=C/c1ccccc1 | Non-toxic
34 | 468 | 13.8 | NNC(=O)CSc1nnc(Cc2csc(NC(=O)c3ccccc3)n2)n1NC(=O)c1ccc(Cl)cc1 | Non-toxic
30 | 512 | 17 | CC(=O)Nc1nc(Cc2nnc(SCC(=O)N/N=C/c3ccccc3)n2NC(=O)c2ccc(Cl)cc2)cs1 | Non-toxic

Source: ChEMBL document CHEMBL1147182, “Clubbed thiazoles by MAOS: a novel approach to cyclin-dependent kinase 5/p25 inhibitors as a potential treatment for Alzheimer's disease” (Bioorg Med Chem, 2007)
